Some test systems named below: 786-0 renal; ACHN renal; CAKI-1 renal; HS 578T breast; KM12 colon; M14 melanoma; MDA-MB-435; MDA-N; NCI-H460 lung; RPMI-8226 leukemia; SF-268 CNS; SK-MEL-2 melanoma; SK-MEL-5 melanoma; SN12C renal; TK-10 renal; UACC-62 melanoma; UO-31 renal; IGROV1 ovarian; MALME-3M melanoma; BT-549 breast.
What all share (experiment): DTP human tumour cell line panel, 48 h

Molecules are shown by their SMILES.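 Five compound concentrations were applied to cells in 96-well plates for 48 hours; endpoints were derived by simple linear interpolation of the resulting dose-response curve. TGI marks complete inhibition of growth.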

In the case of `COc1ccccc1/C=C1\S/C(=N/Nc2nc(C)c(C(C)=O)s2)NC1=O`, the TGI was more than 100 µM in the test on 786-0 renal; more than 100 µM in the test with ACHN renal; more than 100 µM in the test on CAKI-1 renal; 70.1 µM in the test with HS 578T breast; more than 100 µM in the test with KM12 colon; more than 100 µM in the test with M14 melanoma. For the same molecule, the concentration for total growth inhibition (TGI) in the test on MDA-MB-435 was more than 100 µM; in the test on MDA-N, 88.1 µM; in the test with NCI-H460 lung, more than 100 µM; in the test with RPMI-8226 leukemia, 89.4 µM; in the test on SF-268 CNS, 96.6 µM; in the test on SK-MEL-2 melanoma, more than 100 µM. Also, the TGI with SK-MEL-5 melanoma is 47.7 µM; in the test on SN12C renal, more than 100 µM; in the test on TK-10 renal, more than 100 µM; in the test on UACC-62 melanoma it was more than 100 µM; with UO-31 renal it was 90.4 µM.
Take `O=C1CCC2c3ccccc3NCN12` (configuration not stated): the TGI in the test with 786-0 renal, with ACHN renal, in the test with CAKI-1 renal, in the test on HS 578T breast, with IGROV1 ovarian and with KM12 colon was more than 100 µM throughout. The TGI in the test on M14 melanoma, in the test on MALME-3M melanoma, in the test on MDA-MB-435, in the test on MDA-N, in the test on NCI-H460 lung and in the test with RPMI-8226 leukemia was more than 100 µM each time. The total growth inhibition concentration (TGI) in the test with SF-268 CNS, in the test with SK-MEL-2 melanoma, with SK-MEL-5 melanoma, with SN12C renal, in the test with TK-10 renal and in the test on UACC-62 melanoma was more than 100 µM in each case. Besides, in the test on UO-31 renal, the TGI was more than 100 µM.
As to `CC(C)(C)OC(=O)[C@@H]1ON2O[C@H](OC3CCCC3(c3ccccc3)c3ccccc3)C[C@H]3OC(=O)[C@@H]1[C@H]32` (some centres not stated), the TGI in the test with 786-0 renal, in the test on ACHN renal, with BT-549 breast, with CAKI-1 renal, with IGROV1 ovarian and with KM12 colon was more than 100 µM in each case. The TGI is more than 100 µM in the test on M14 melanoma; more than 100 µM in the test on MDA-MB-435; more than 100 µM in the test on MDA-N; more than 100 µM with NCI-H460 lung; more than 100 µM in the test with SF-268 CNS; 51.8 µM with SK-MEL-2 melanoma. For the same molecule, the TGI in the test with SK-MEL-5 melanoma, in the test on SN12C renal, in the test with TK-10 renal, with UACC-62 melanoma and in the test with UO-31 renal was more than 100 µM in each case.
As to `CCOC(=O)NN(C(=O)OCC)C(=C(C1=CCCCC1)N1CCOCC1)N(NC(=O)OCC)C(=O)OCC`, the TGI with 786-0 renal, with ACHN renal, in the test with BT-549 breast, in the test with CAKI-1 renal, in the test with IGROV1 ovarian and with KM12 colon was more than 100 µM each time. Moreover, the TGI with M14 melanoma, in the test with MALME-3M melanoma, in the test with MDA-MB-435, with MDA-N, in the test with NCI-H460 lung and with RPMI-8226 leukemia was more than 100 µM throughout. The TGI in the test with SF-268 CNS, in the test on SN12C renal, in the test on TK-10 renal, with UACC-62 melanoma and with UO-31 renal was more than 100 µM in each case.
Consider `CCC/C(Cl)=N/OC(NC(=O)OCC)(C(F)(F)F)C(F)(F)F`, for which the TGI is 31.2 µM in the test with 786-0 renal; 32.3 µM in the test with ACHN renal; 35.6 µM in the test on CAKI-1 renal; 77.3 µM with HS 578T breast; 30.9 µM in the test on IGROV1 ovarian; more than 100 µM in the test on KM12 colon. Moreover, the TGI in the test on M14 melanoma is 32.1 µM; in the test on MALME-3M melanoma it was 29.6 µM; in the test on MDA-MB-435, 34.8 µM; in the test with MDA-N, 35.9 µM; with NCI-H460 lung it was more than 100 µM; with RPMI-8226 leukemia it was 56.1 µM. In addition, the TGI in the test on SF-268 CNS is 36.6 µM; with SK-MEL-2 melanoma, more than 100 µM; in the test on SK-MEL-5 melanoma, 71.4 µM; with SN12C renal, 32.6 µM; in the test on TK-10 renal it was 33.3 µM; with UACC-62 melanoma it was more than 100 µM. For the same molecule, in the test on UO-31 renal, the TGI is 33.8 µM.
`COc1ccc(N=Nc2ccc3oc(=O)c(C(=O)Nc4ccccc4C)cc3c2)cc1`: the TGI in the test on 786-0 renal, in the test with ACHN renal, with CAKI-1 renal, in the test on HS 578T breast, in the test on IGROV1 ovarian and in the test with KM12 colon was more than 10 µM throughout. Further, the TGI in the test with M14 melanoma, in the test on MALME-3M melanoma, in the test with MDA-MB-435, in the test on MDA-N, in the test with NCI-H460 lung and in the test with RPMI-8226 leukemia was more than 10 µM in each case. Also, the TGI in the test on SF-268 CNS, with SK-MEL-2 melanoma, in the test on SK-MEL-5 melanoma, in the test with SN12C renal, in the test on TK-10 renal and in the test with UO-31 renal was more than 10 µM throughout.
Consider `Cc1nc2cc3ccccc3cc2[nH]c1=O`, for which the TGI in the test on 786-0 renal, in the test with BT-549 breast, in the test on CAKI-1 renal, with IGROV1 ovarian, in the test with KM12 colon and in the test with M14 melanoma was more than 100 µM each time. The TGI in the test with MALME-3M melanoma, in the test on MDA-MB-435, with MDA-N, in the test on NCI-H460 lung, with SF-268 CNS and in the test on SK-MEL-2 melanoma was more than 100 µM in each case. The TGI in the test on SK-MEL-5 melanoma, in the test on SN12C renal, in the test on TK-10 renal, in the test on UACC-62 melanoma and in the test with UO-31 renal was more than 100 µM each time.
Consider `COc1ccc(CNc2nc(NCc3ccc(OC)cc3)nc(NC3CCCC3)n2)cc1`, for which the TGI with 786-0 renal is more than 68.5 µM; in the test with ACHN renal it was more than 100 µM; in the test on BT-549 breast, more than 31.8 µM; in the test with CAKI-1 renal it was more than 84.1 µM; with HS 578T breast, more than 21.3 µM; in the test on IGROV1 ovarian it was more than 33.7 µM. Further, the TGI in the test with KM12 colon is 1.59 µM; with M14 melanoma it was more than 100 µM; with MALME-3M melanoma, more than 100 µM; in the test on MDA-MB-435 it was 4.95 µM; in the test with NCI-H460 lung, more than 33.8 µM; in the test on RPMI-8226 leukemia it was more than 30.4 µM. In addition, the TGI was more than 100 µM in the test with SF-268 CNS; more than 100 µM with SK-MEL-2 melanoma; 14 µM with SK-MEL-5 melanoma; more than 100 µM in the test on SN12C renal; more than 26.1 µM in the test with TK-10 renal; more than 59.6 µM in the test on UACC-62 melanoma. In addition, in the test with UO-31 renal, the TGI is more than 91.1 µM.
For `O=C1OCC(c2ccc(Cl)cc2)=C1Cl`, the TGI with 786-0 renal was 40.6 µM; in the test on ACHN renal, more than 100 µM; with BT-549 breast, 53.9 µM; in the test with CAKI-1 renal, 88.4 µM; in the test on HS 578T breast it was more than 100 µM; in the test on IGROV1 ovarian, 25.2 µM. Further, the TGI is 36 µM in the test with KM12 colon; 41.8 µM in the test on M14 melanoma; 32.7 µM in the test on MALME-3M melanoma; more than 100 µM with MDA-MB-435; 46.2 µM in the test on NCI-H460 lung; 86.2 µM in the test on RPMI-8226 leukemia. Also, the TGI is 70 µM in the test with SF-268 CNS; 64.1 µM with SK-MEL-2 melanoma; 31.5 µM in the test with SK-MEL-5 melanoma; 80.4 µM with SN12C renal; 60.6 µM in the test on TK-10 renal; 45.9 µM with UACC-62 melanoma. The molecule further showed a TGI in the test with UO-31 renal of 33.9 µM.
For the molecule `Nc1ncc(C=O)c(NCC2(CO)CCC2)n1`, the TGI with 786-0 renal is more than 100 µM; in the test with CAKI-1 renal, 44.3 µM; in the test on HS 578T breast, more than 100 µM; in the test with IGROV1 ovarian, more than 100 µM; in the test on KM12 colon, more than 100 µM; with MALME-3M melanoma, more than 100 µM. The TGI in the test with MDA-MB-435, in the test with MDA-N, with NCI-H460 lung, in the test with RPMI-8226 leukemia, in the test on SF-268 CNS and with SK-MEL-2 melanoma was more than 100 µM in each case. The TGI is 86.9 µM with SK-MEL-5 melanoma; more than 100 µM with SN12C renal; 73.8 µM in the test on TK-10 renal; 81.2 µM in the test with UACC-62 melanoma; more than 100 µM in the test on UO-31 renal.
On to `CCOC(=O)/C(C(=S)NCc1ccccc1)=C(/N)N1CCCC1`, for which the TGI with 786-0 renal, with ACHN renal, with CAKI-1 renal, with HS 578T breast, with IGROV1 ovarian and in the test with KM12 colon was more than 100 µM throughout. For the same molecule, the TGI in the test on M14 melanoma, in the test with MALME-3M melanoma, with MDA-MB-435, in the test on MDA-N, in the test with NCI-H460 lung and in the test on RPMI-8226 leukemia was more than 100 µM in each case. Besides, the TGI in the test on SF-268 CNS, in the test on SK-MEL-2 melanoma, in the test with SK-MEL-5 melanoma, in the test with SN12C renal, in the test with TK-10 renal and in the test with UACC-62 melanoma was more than 100 µM each time. The molecule also yielded a TGI in the test with UO-31 renal of more than 100 µM.
With `CS(=O)(=O)OCCCSCCSCCCOS(C)(=O)=O`, the TGI in the test with 786-0 renal, in the test with BT-549 breast, in the test with IGROV1 ovarian, in the test on KM12 colon, in the test with M14 melanoma and with MDA-MB-435 was more than 100 µM throughout. Besides, the TGI with MDA-N, in the test on NCI-H460 lung, with SF-268 CNS, with SK-MEL-5 melanoma, with SN12C renal and in the test on TK-10 renal was more than 100 µM each time. The TGI in the test on UACC-62 melanoma and in the test on UO-31 renal was more than 100 µM each time.

Source of the values: PubChem BioAssay (NCI).
